Measured values: patent publication EP0345751A1, “Anti-retroviral diflourinated nucleosides” (MERRELL DOW PHARMACEUTICALS INC., priority 1988, dated 1989)

Test system: Moloney murine leukemia virus (MoLV)
Test: in vitro XC plaque assay (inhibition of growth and replication of murine leukemia virus in mouse SC-1 cells)
Format: cell-based
Conditions: compound added 2 hours prior to virus; for Average No. of Foci/plate: Control 36 foci/plate
Experimental: This assay was performed according to the method of Rowe et al. (Virology, 1970, 42, 1136-39) as previously described by L. Hsu, et al. (J. Virological Methods, 1980, 1, 167-77) and T. L. Bowlin and M. R. Proffitt (J. Interferon Res., 1983, 3(1), 19-31). Mouse SC-1 cells (fibroblast) (10⁵) were seeded into each well of 6-well cluster plates (Costar #3506) in 4 ml Minimum Essential Medium (MEM) with 10% Fetal Calf Serum (FCS). Following an 18 hour incubation period (37°C), Moloney murine leukemia virus (MoLV) was applied at a predetermined titer to give optimal (i.e. countable) numbers of virus plaques. Compounds were added 2 hours prior to addition of the virus. Three days later the culture medium was removed, the SC-1 cell monolayers were exposed to UV irradiation (1800 ergs), and rat XC cells […] were seeded into each well in 4 ml MEM. Following an additional 3 day incubation (37°C), these cells were fixed with ethyl alcohol (95%) and stained with 0.3% crystal violet. Plaques were then counted under low magnification.

For Nc1ccn([C@@H]2O[C@H](CO)[C@@H](O)C2(F)F)c(=O)n1 [2′-Deoxy-2′,2′-Difluorocytidine, 2′-deoxy-2′,2′-difluorocytidine], the “Average No. of Foci/plate” value (Concentration 0.0025 µg/ml) was 28, the “Average No. of Foci/plate” value (Concentration 0.005 µg/ml) was 15 and the “Average No. of Foci/plate” value (Concentration 0.01 µg/ml) was 0. The “Average No. of Foci/plate” value (Concentration 0.1 µg/ml) was 0, the inhibition at 0.0025 µg/mL (Murine leukemia virus, SC1, Concentration 0.0025 µg/ml) was 22% and the inhibition at 0.005 µg/mL (Murine leukemia virus, SC1, Concentration 0.005 µg/ml) was 58%. It also gave an inhibition at 0.01 µg/mL (Murine leukemia virus, SC1, Concentration 0.01 µg/ml) of 100% and an inhibition at 0.1 µg/mL (Murine leukemia virus, SC1, Concentration 0.1 µg/ml) of 100%.

For Cc1cn([C@H]2C[C@H](N=[N+]=[N-])[C@@H](CO)O2)c(=O)[nH]c1=O [AZT, 3′-azido-3′-deoxythymidine, reference compound], the “Average No. of Foci/plate” value (Concentration 0.001 µg/ml) was 18 and the inhibition at 0.001 µg/mL (Murine leukemia virus, SC1, Concentration 0.001 µg/ml) was 50%.
